Experiments:
[1] = system: human PGHS-2 protein expression in LPS stimulated human monocytes; test: Prostoglandin Endoperoxide Synthase-2 (PGHS-2) Assay; assay type: cell-based; conditions: for LPS induced PGHS-2 protein expression (inactive in this assay): up to 10 uM; for inhibited LPS induced PGHS-2 protein expression (active in this assay): rank order potency similar to that for inhibiting cytokine production
Method: The following assay describes a method for determining the inhibitory effects of compounds of Formula (I) on human PGHS-2 protein expression in LPS stimulated human monocytes.
Human peripheral blood monocytes were isolated from buffy coats by centrifugation through Ficoll and Percoll gradients. Cells were seeded at 2×10^6/well in 24 well plates and allowed to adhere for 1 hour in RPMI supplemented with 1% human AB serum, 20 mM L-glutamine, Penicillin-Streptomycin and 10 mM HEPES. Compounds were added at various concentrations and incubated at 37° C. for 10 minutes. LPS was added at 50 ng/well (to induce enzyme expression) and incubated overnight at 37° C. The supernatant was removed and cells washed once in cold PBS. The cells were lysed in 100 μl of cold lysis buffer(50 mM Tris/HCl pH 7.5, 150 mM NaCl, 1% NP40, 0.5% sodium deoxycholate, 0.1% SDS, 300 ug/ml DNAse, 0.1% TRITON X-100, 1 mM PMSF, 1 mM leupeptin, 1 mM pepstatin). The lysate was centrifuged (10,000×g for 10 min. at 4° C.) to remove debris and the soluble fraction was subjected to SDS PAGE. analysis (12% gel). Protein separated on the gel were transferred onto nitrocellulose membrane by electrophoretic means for 2 hours at 60 volts. The membrane was pretreated for one hour in PBS/0.1% Tween 20 with 5% non-fat dry milk. After washing 3 times in PBS/Tween buffer, the membrane was incubated with a 1:2000 dilution of a monospecific antiserum to PGHS-2 or a 1:1000 dilution of an antiserum to PGHS-1 in PBS/Tween with 1% BSA for one hour with continuous shaking. The membrane was washed 3× in PBS/Tween and then incubated with a 1:3000 dilution of horseradish peroxidase conjugated donkey antiserum to rabbit Ig (Amersham) in PBS/Tween with 1% BSA for one hour with continuous shaking. The membrane was then washed 3× in PBS/Tween and the ECL immunodetection system (Amersham) was used to detect the level of expression of prostaglandin endoperoxide synthases-2.

[2] = system: pro-inflammatory proteins including, IL-6, IL-8, GM-CSF and COX-2; conditions: cited from earlier work

For `C[S+]([O-])c1ccc(-c2nc3n(c2-c2ccncc2)CCC3)cc1` (stereo not shown) [2-(4-Methylsulfinylphenyl)-3-(4-pyridyl)-6,7-dihydro-(5H)-pyrrolo[1,2-a]imidazole], which “LPS induced PGHS-2 protein expression (inactive in this assay)” value [1] is on record?
Its value is “inactive”.

Which “inhibited LPS induced PGHS-2 protein expression (active in this assay)” value [1] does the source give for `Fc1ccc(-c2nc3n(c2-c2ccncc2)CCS3)cc1` [6-(4-Fluoro-phenyl)-2,3-dihydro-5-(4-pyridinyl)imidazo[2,1-b]thiazole] here?
Its value is “active”.

For `C[C@@H]1C[C@H]2[C@@H]3CCC4=CC(=O)C=C[C@]4(C)[C@@]3(F)[C@@H](O)C[C@]2(C)[C@@]1(O)C(=O)CO` [Dexamethasone], which “inhibited LPS induced PGHS-2 protein expression (active in this assay)” value [1] is on record?
Its value is “active”.

Which “LPS induced PGHS-2 protein expression (inactive in this assay)” value [1] does the source give for `COc1ccc(C2CNC(=O)C2)cc1OC1CCCC1` (stereo not shown) [Rolipram] here?
Its value is “inactive”.

Which “synthesis of pro-inflammatory proteins including IL-6, IL-8, GM-CSF and COX-2” value [2] does the source give for `C[S+]([O-])c1ccc(-c2nc(-c3ccncc3)c(-c3ccc(F)cc3)[nH]2)cc1` (stereo not shown) [SB 203580] here?
Its value is “decrease”.

For `Fc1ccc(-c2nc3n(c2-c2ccncc2)CCS3)cc1` [SK&F 86002], which “synthesis of pro-inflammatory proteins including IL-6, IL-8, GM-CSF and COX-2” value [2] is on record?
The value was “decrease”.

For `O=C1CCN(c2ccccc2)N1` [phenidone], which “LPS induced PGHS-2 protein expression (inactive in this assay)” value [1] is on record?
Its value is “inactive”.

— patent US6730683B2, “Compounds of heteroaryl substituted imidazole, their pharmaceutical compositions and uses” (SmithKline Beecham Corporation, priority 1997, dated 2004)
